Columns and labels:
[1] = 8-hour euglycemic clamp, plasma lispro (pharmacokinetic profile) after sc lispro ± iloprost; type: in vivo, human; details: OT2D subjects with A1c>8%, sc lispro 10 or 30 U with vs without 1 nmol iloprost
Text: Euglycemic clamp. Subjects were admitted to the Sherbrooke University Hospital Clinical Research Center (CRC) at 8 PM the evening prior to each study. An i.v. antecubital cannula was installed to allow venous sampling for immediate whole blood glucose level measurements by a glucose analyzer (FreeStlyle Lite Glucometer, Abbott Diabetes Care Inc.) at 30-min intervals until glycemic target is reached and at 2-hour intervals thereafter. A second contralateral cannula was installed for continuous i.v. administration of regular insulin and glucose, as needed, and plasma glucose has been brought progressively into the normal target range of 5-7 mmol/L overnight and then kept at this level. Experiments started around 8 AM. Patients have been kept fasting (drinking water permitted) during the entire 8-hour clamp study. […] Plasma glucose levels were monitored every 5 min for the first 4 hours and at 10-min intervals thereafter. […] Subjects were allowed to leave when glucose levels were stabilised over 6 mmol/L. Plasma lispro was measured by an ultra-specific radioimmunoassay (Linco Research Inc.) Detection limit is 18 pmol/L, intra-assay CV is 2.5% in our hands (Gagnon-Auger M, et al. Diabetes Care 2010;33(12):2502-7). […]
The fractional plasmatic lispro AUCs were calculated by the trapezoidal method. […]

[2] = 8-hour euglycemic clamp, glucose infusion rate (pharmacodynamic profile) after sc lispro ± iloprost; type: in vivo, human; details: OT2D subjects with A1c>8%, sc lispro 10 or 30 U with vs without 1 nmol iloprost
Text: Euglycemic clamp. Subjects were admitted to the Sherbrooke University Hospital Clinical Research Center (CRC) at 8 PM the evening prior to each study. An i.v. antecubital cannula was installed to allow venous sampling for immediate whole blood glucose level measurements by a glucose analyzer ([…] Glucometer, Abbott Diabetes Care Inc.) at 30-min intervals until glycemic target is reached and at 2-hour intervals thereafter. A second contralateral cannula was installed for continuous i.v. administration of regular insulin and glucose, as needed, and plasma glucose has been brought progressively into the normal target range of 5-7 mmol/L overnight and then kept at this level. Experiments started around 8 AM. Patients have been kept fasting (drinking water permitted) during the entire 8-hour clamp study. […] Plasma glucose levels were monitored every 5 min for the first 4 hours and at 10-min intervals thereafter. […] Subjects were allowed to leave when glucose levels were stabilised over 6 mmol/L. Plasma lispro was measured by an ultra-specific radioimmunoassay (Linco Research Inc.) Detection limit is 18 pmol/L, intra-assay CV is 2.5% in our hands (Gagnon-Auger M, et al. Diabetes Care 2010;33(12):2502-7). […] The fractional plasmatic lispro AUCs were calculated by the trapezoidal method. […]

maximal plasma lispro concentrations ([1]; FIG. 5): rapidely increased
lispro absorption (fractional AUCs of plasmatic lispro, 10 to 40 min) ([1]; FIG. 7): accelerated
SMILES: CC#CCC(C)[C@H](O)/C=C/[C@@H]1[C@H]2C/C(=C/CCCC(=O)O)C[C@H]2C[C@H]1O (stereo partly shown) [iloprost]
maximal glucose infusion rates ([2]; FIG. 8): rapidely increased
hypoglycemic effect (early total glucose infusion, 30 to 60 min) ([2]; FIG. 9): accelerated

Reference: patent US12329762B2, “Pharmaceutical preparation for improving absorption and postprandial hypoglycemic action of insulin” (Eli Lilly and Company, priority 2015, dated 2025)
